From PubChem BioAssay (NCI) come the findings set out here.

The structures appear in SMILES notation.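 A five-concentration, 48-hour dose response in 96-well plates underlies each endpoint, interpolated linearly between surrounding concentrations. The concentration for full growth arrest is given as TGI.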

Test systems include 786-0 renal; EKVX NSCLC; BT-549 breast; RXF 393 renal; HS 578T breast; MDA-N; SNB-19 CNS; SF-539 CNS; MALME-3M melanoma; T-47D breast.
Common to all, as to experiment: NCI-60 cell line screen, 48 h

For `O=Cc1ccc(-c2ccc(S(=O)(=O)O)cc2)o1`, the TGI with 786-0 renal, in the experiment with EKVX NSCLC, in the experiment with BT-549 breast, in the experiment on RXF 393 renal, in the experiment with HS 578T breast and in the experiment on MDA-N was > 100 µM throughout. The TGI with SNB-19 CNS, in the experiment with SF-539 CNS and in the experiment with MALME-3M melanoma was > 100 µM in each case.

Take `COc1ccc(NC(=O)NNS(=O)(=O)c2ccc(C)cc2)cc1`: the TGI with T-47D breast, with 786-0 renal, with EKVX NSCLC, in the experiment with RXF 393 renal, in the experiment on HS 578T breast and in the experiment with MDA-N was > 100 µM throughout. Further, the TGI with SNB-19 CNS, in the experiment on SF-539 CNS and in the experiment with MALME-3M melanoma was > 100 µM throughout.

Consider `CC1N=C(c2ccccc2)OC1=O` (centres undefined), for which the TGI in the experiment with T-47D breast, in the experiment on 786-0 renal, in the experiment on EKVX NSCLC, in the experiment on BT-549 breast, with HS 578T breast and in the experiment on MDA-N was > 100 µM each time. Moreover, the TGI in the experiment with SNB-19 CNS, in the experiment on SF-539 CNS and with MALME-3M melanoma was > 100 µM throughout.

In the case of `Cc1ccc(O)c(C(c2cc(C)ccc2O)c2cc([N+](=O)[O-])ccc2O)c1`, the TGI stood at 77.8 µM with T-47D breast; 33.9 µM in the experiment with 786-0 renal; 32.3 µM with EKVX NSCLC; 54 µM in the experiment on RXF 393 renal; 37.9 µM in the experiment with HS 578T breast; 33.9 µM in the experiment on SF-539 CNS.

For `C[C@]12CC[C@H](O)CC1=CC[C@@H]1[C@@H]2CC[C@]2(C)NC(=O)/C(=C\c3ccccc3)C[C@@H]12`, the TGI worked out at 47 µM in the experiment with T-47D breast; 52 µM in the experiment with 786-0 renal; 28.4 µM in the experiment on EKVX NSCLC; 32.7 µM with BT-549 breast; 27.9 µM in the experiment on RXF 393 renal; 69.8 µM in the experiment on MDA-N. For the same compound, the results for the TGI in the experiment on SNB-19 CNS, in the experiment on SF-539 CNS and with MALME-3M melanoma were 27.8 µM, 30.2 µM and 30.3 µM, respectively.

On to `N[C@H]1CCN(c2c(F)cc3c(=O)c(C(=O)O)cn4c3c2Oc2c-4ccc3c2ccc2ccccc23)C1`, for which the TGI was > 100 µM in the experiment on T-47D breast; > 36.6 µM with 786-0 renal; > 24.7 µM with EKVX NSCLC; > 69.3 µM in the experiment with BT-549 breast; 16.6 µM in the experiment on RXF 393 renal; > 53.6 µM with MDA-N. The TGI in the experiment on SNB-19 CNS, in the experiment on SF-539 CNS and in the experiment with MALME-3M melanoma was > 100 µM throughout.

For `Cc1cnc2[nH]c(-c3ccc(Cl)cc3)cc(=O)c2c1`, the TGI in the experiment with T-47D breast was > 100 µM; in the experiment on 786-0 renal, > 100 µM; in the experiment with EKVX NSCLC, > 100 µM; in the experiment on BT-549 breast, > 100 µM; in the experiment on HS 578T breast, > 100 µM; in the experiment with MDA-N, 3.61 µM. Also, the results for the TGI in the experiment on SNB-19 CNS, in the experiment on SF-539 CNS and in the experiment on MALME-3M melanoma were > 100 µM, 6.81 µM and > 100 µM, respectively.

`COc1nc2c(c(=O)[nH]1)N=C(c1ccc(Cl)cc1)CC(c1ccccc1)N2` (centres undefined): the TGI in the experiment with 786-0 renal was > 100 µM; in the experiment on EKVX NSCLC, > 100 µM; with BT-549 breast, > 100 µM; with RXF 393 renal it was 61.4 µM; in the experiment with MDA-N, 76.8 µM; in the experiment with SNB-19 CNS it was > 100 µM. In addition, in the experiment on SF-539 CNS, the TGI was 42.1 µM.

Turning to `c1cc2c3ccsc3c3sccc3c2s1`, the TGI in the experiment on T-47D breast is > 100 µM; in the experiment on 786-0 renal, > 100 µM; in the experiment on EKVX NSCLC it was > 100 µM; with BT-549 breast, > 100 µM; in the experiment on RXF 393 renal it was > 100 µM; in the experiment on HS 578T breast, 71.8 µM. The TGI in the experiment with MDA-N and in the experiment with SF-539 CNS was > 100 µM throughout.

Take `O=c1[nH]c(=O)n(C2CC(O)C(COP(=O)(OCC(Cl)(Cl)Cl)OCC(Cl)(Cl)Cl)O2)cc1F` (centres undefined): the TGI with T-47D breast, in the experiment on 786-0 renal, in the experiment on EKVX NSCLC, in the experiment with HS 578T breast, in the experiment on MDA-N and in the experiment on SNB-19 CNS was > 100 µM in each case. In addition, the TGI in the experiment on MALME-3M melanoma was > 100 µM.

Turning to `Cc1ccc2c(c1)CC1(C2)Cc2ccc(C)cc2C1=O` (centres undefined), the TGI was > 100 µM in the experiment with T-47D breast; 63 µM with 786-0 renal; 88.7 µM in the experiment on EKVX NSCLC; 54.4 µM with RXF 393 renal; > 100 µM in the experiment on HS 578T breast; 73.1 µM with MDA-N. Moreover, the figures for the TGI in the experiment on SNB-19 CNS, with SF-539 CNS and in the experiment with MALME-3M melanoma were > 100 µM, 87.3 µM and 43.8 µM, respectively.

`CN1CCN(Cc2ccccc2)CC1CC#N` (centres undefined): the TGI in the experiment on T-47D breast, with 786-0 renal, with EKVX NSCLC, with BT-549 breast, with RXF 393 renal and in the experiment with MDA-N was > 100 µM in each case. Also, the TGI in the experiment with SNB-19 CNS, with SF-539 CNS and in the experiment with MALME-3M melanoma was > 100 µM in each case.

For `O=C(CCN1CCCC1)c1ccc(Oc2ccc(F)cc2)cc1`, the TGI in the experiment on 786-0 renal is 31.8 µM; with EKVX NSCLC it was > 100 µM; in the experiment on BT-549 breast, > 100 µM; in the experiment with RXF 393 renal, 74.4 µM; in the experiment on HS 578T breast it was > 100 µM; with MDA-N, > 100 µM. For the same compound, the TGI with SNB-19 CNS, in the experiment with SF-539 CNS and in the experiment on MALME-3M melanoma was > 100 µM throughout.

In the case of `O=C(O)CCC(NC(=O)c1ccc(CNc2nc3cc(C(F)(F)F)ccc3nc2C(=O)O)cc1)C(=O)O` (centres undefined), the TGI in the experiment with T-47D breast, in the experiment with 786-0 renal, with EKVX NSCLC, with RXF 393 renal, with MDA-N and with SNB-19 CNS was > 100 µM each time. For the same compound, the TGI in the experiment on SF-539 CNS and in the experiment with MALME-3M melanoma was > 100 µM each time.

Regarding `CC[C@]1(Cc2ccc(OC)c(OC)c2)C=[N+]([O-])O[C@H](OCc2ccccc2)[C@@H]1OC(C)=O`, the TGI in the experiment on T-47D breast is > 100 µM; in the experiment with 786-0 renal it was > 100 µM; in the experiment on EKVX NSCLC, 67.5 µM; with RXF 393 renal, 55.4 µM; in the experiment on HS 578T breast, 60.5 µM; with MDA-N, > 100 µM. In addition, the TGI in the experiment with SNB-19 CNS was > 100 µM; with MALME-3M melanoma, 52.9 µM.

`Oc1ccc(/C=N/c2nccs2)c(O)c1`: the TGI in the experiment with 786-0 renal, in the experiment with EKVX NSCLC, in the experiment with BT-549 breast, with RXF 393 renal, in the experiment on HS 578T breast and with MDA-N was > 100 µM in each case. Further, the TGI in the experiment with SNB-19 CNS, in the experiment with SF-539 CNS and in the experiment with MALME-3M melanoma was > 100 µM throughout.
